Results from US8278306B2 (Vertex Pharmaceuticals Incorporated, priority 2006, dated 2012).

Biological target: T1, ROCK I (AA 6-553) (Homo sapiens, UniProt Q13464)
T1 construct: ROCK I (AA 6-553)
Experiment: ROCK inhibition assay, standard coupled enzyme system
Type: biochemical
Conditions: 45 nM ROCK I, 45 μM ATP, 200 μM peptide, 30° C.
Experimental: Reactions were carried out in a solution containing 100 mM HEPES (pH 7.5), 10 mM MgCl2, 25 mM NaCl, 2 mM DTT and 1.5% DMSO.

T1 sequence (Q13464 6-553, species assumed): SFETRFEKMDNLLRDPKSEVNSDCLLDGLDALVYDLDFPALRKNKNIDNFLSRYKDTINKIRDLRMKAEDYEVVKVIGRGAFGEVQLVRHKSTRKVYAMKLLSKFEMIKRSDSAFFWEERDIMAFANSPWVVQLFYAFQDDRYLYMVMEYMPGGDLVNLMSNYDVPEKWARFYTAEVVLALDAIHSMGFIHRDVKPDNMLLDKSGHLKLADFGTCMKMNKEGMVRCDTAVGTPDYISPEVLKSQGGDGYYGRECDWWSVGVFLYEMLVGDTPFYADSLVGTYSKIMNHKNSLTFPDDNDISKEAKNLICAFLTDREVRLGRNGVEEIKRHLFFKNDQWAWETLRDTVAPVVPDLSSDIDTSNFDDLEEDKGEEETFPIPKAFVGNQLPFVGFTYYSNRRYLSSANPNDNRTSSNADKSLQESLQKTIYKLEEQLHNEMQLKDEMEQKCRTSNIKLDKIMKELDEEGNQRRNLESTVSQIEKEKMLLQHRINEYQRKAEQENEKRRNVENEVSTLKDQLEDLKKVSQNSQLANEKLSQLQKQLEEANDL

Ki	SMILES
> 1 µM	CCOc1cc(-c2csc(NC(=O)Cc3ccccc3Cl)n2)ccn1 [Compound 8]
< 0.1 µM	CN1CCN(CCOc2cccc(CC(=O)Nc3cc(-c4ccnc(N)c4)cs3)c2)CC1 [Compound 106]
< 0.1 µM	CCN(CC)S(=O)(=O)c1cccc(CC(=O)Nc2cc(-c3ccnc(F)c3)cs2)c1 [Compound 70]
0.1 to 1 µM	O=C(Cc1ccc(F)cc1)Nc1nc(-c2ccnc(Cl)c2)cs1 [Compound 2]
< 0.1 µM	Nc1cc(-c2csc(NC(=O)Cc3ccccc3)n2)ccn1 [Compound 41]
< 0.1 µM	CCN1CCN(CCCOc2cccc(CC(=O)Nc3nc(-c4ccnc(Cl)c4)cs3)c2)CC1 [Compound 54]
< 0.1 µM	CS(=O)(=O)Nc1ccc(F)c(CC(=O)Nc2cc(-c3ccnc(F)c3)cs2)c1 [Compound 68]
> 1 µM	CCOc1cc(-c2csc(NC(=O)Cc3cccc(OC)c3)n2)ccn1 [Compound 5]
< 0.1 µM	CS(=O)(=O)Nc1cccc(CC(=O)Nc2nc(-c3ccnc(F)c3)cs2)c1 [Compound 59]
0.1 to 1 µM	Cc1cc(-c2csc(NC(=O)Cc3ccccc3)c2)ccn1 [Compound 87]
> 1 µM	Cc1cc(-c2csc(NC(=O)Cc3cccc(S(=O)(=O)N(C)C)c3)c2)ccn1 [Compound 83]
< 0.1 µM	Nc1cc(-c2csc(NC(=O)Cc3ccc(F)cc3F)n2)ccn1 [Compound 16]
0.1 to 1 µM	Cc1cc(-c2csc(NC(=O)Cc3ccccc3)n2)ccn1 [Compound 36]
< 0.1 µM	O=C(Cc1ccc(OCCCC2CCNCC2)cc1)Nc1cc(-c2ccnc(Cl)c2)cs1 [Compound 99]
> 1 µM	CN(C)c1cc(-c2csc(NC(=O)Cc3ccccc3Cl)n2)ccn1 [Compound 11]
< 0.1 µM	Cc1cc(-c2csc(NC(=O)Cc3cc4c(cc3Cl)OCO4)n2)ccn1 [Compound 32]
0.1 to 1 µM	CNc1cc(-c2csc(NC(=O)Cc3ccc(F)cc3F)n2)ccn1 [Compound 23]
0.1 to 1 µM	O=C(Cc1ccccc1F)Nc1nc(-c2ccnc(Cl)c2)cs1 [Compound 46]

Ki	SMILES
< 0.1 µM	Nc1cc(-c2csc(NC(=O)Cc3cccc(O)c3)n2)ccn1 [Compound 34]
< 0.1 µM	O=C(Cc1ccc(F)cc1F)Nc1nc(-c2ccnc(F)c2)cs1 [Compound 58]
0.1 to 1 µM	CCNc1cc(-c2csc(NC(=O)Cc3ccc(F)cc3F)n2)ccn1 [Compound 21]
0.1 to 1 µM	O=C(Cc1cccc(S(=O)(=O)N2CCOCC2)c1)Nc1cc(-c2ccnc(F)c2)cs1 [Compound 71]
< 0.1 µM	CS(=O)(=O)Nc1ccc(F)c(CC(=O)Nc2cc(-c3ccnc(N)c3)cs2)c1 [Compound 76]
0.1 to 1 µM	Cc1cc(-c2csc(NC(=O)Cc3ccccc3F)c2)ccn1 [Compound 81]
0.1 to 1 µM	Cc1cc(-c2csc(NC(=O)Cc3ccc(NS(C)(=O)=O)cc3)n2)ccn1 [Compound 44]
< 0.1 µM	Nc1cc(-c2csc(NC(=O)Cc3ccccc3F)n2)ccn1 [Compound 35]
0.1 to 1 µM	O=C(Cc1ccccc1Cl)Nc1nc(-c2ccnc(Cl)c2)cs1 [Compound 10]
0.1 to 1 µM	O=C(Cc1ccccc1)Nc1nc(-c2ccnc(Cl)c2)cs1 [Compound 50]
0.1 to 1 µM	CCNc1cc(-c2csc(NC(=O)Cc3cccc(OC)c3)n2)ccn1 [Compound 15]
< 0.1 µM	O=C(Cc1ccccc1)Nc1cc(-c2ccnc(F)c2)cs1 [Compound 66]
0.1 to 1 µM	Cc1cc(-c2csc(NC(=O)Cc3ccccc3F)n2)ccn1 [Compound 38]
< 0.1 µM	O=C(Cc1ccc(F)cc1F)Nc1cc(-c2ccnc(F)c2)cs1 [Compound 69]
0.1 to 1 µM	O=C(Cc1ccc(F)cc1F)Nc1nc(-c2ccnc(Cl)c2)cs1 [Compound 47]
0.1 to 1 µM	Cc1cc(-c2csc(NC(=O)Cc3ccc(F)cc3)n2)ccn1 [Compound 40]
< 0.1 µM	O=C(Cc1cccc(O)c1)Nc1nc(-c2ccnc(Cl)c2)cs1 [Compound 48]
< 0.1 µM	O=C(Cc1ccc(F)cc1)Nc1cc(-c2ccnc(F)c2)cs1 [Compound 67]

More lines, now with the values behind:

SMILES	Ki
Cc1cc(-c2csc(NC(=O)Cc3cccc(NS(=O)(=O)N(C)C)c3)c2)ccn1 [Compound 84]	0.1 to 1 µM
O=C(Cc1ccc(OCCN2CCNCC2)cc1Cl)Nc1cc(-c2ccnc(Cl)c2)cs1 [Compound 95]	< 0.1 µM
Cc1cc(-c2csc(NC(=O)Cc3ccc(F)cc3F)n2)ccn1 [Compound 30]	0.1 to 1 µM
CN1CCN(CCOc2ccc(CC(=O)Nc3cc(-c4ccnc(Cl)c4)cs3)c(Cl)c2)CC1 [Compound 96]	< 0.1 µM
Nc1cc(-c2csc(NC(=O)Cc3ccccc3Cl)n2)ccn1 [Compound 27]	< 0.1 µM
CCNc1cc(-c2csc(NC(=O)Cc3cc4c(cc3Cl)OCO4)n2)ccn1 [Compound 22]	0.1 to 1 µM
O=C(Cc1ccc(F)cc1)Nc1nc(-c2ccnc(F)c2)cs1 [Compound 57]	0.1 to 1 µM
O=C(Cc1ccccc1F)Nc1nc(-c2ccnc(F)c2)cs1 [Compound 56]	< 0.1 µM
O=C(Cc1cccc(OCCCN2CCNCC2)c1)Nc1nc(-c2ccnc(Cl)c2)cs1 [Compound 55]	< 0.1 µM
Nc1cc(-c2csc(NC(=O)Cc3cccc(OCCCCl)c3)n2)ccn1 [Compound 24]	0.1 to 1 µM
CCOc1cc(-c2csc(NC(=O)Cc3ccc(F)cc3)n2)ccn1 [Compound 7]	> 1 µM
CN(C)S(=O)(=O)c1cccc(CC(=O)Nc2cc(-c3ccnc(F)c3)cs2)c1 [Compound 78]	0.1 to 1 µM
Cc1cc(-c2csc(NC(=O)Cc3ccccc3Cl)n2)ccn1 [Compound 33]	0.1 to 1 µM
CN1CCN(CCCOc2cccc(CC(=O)Nc3nc(-c4ccnc(N)c4)cs3)c2)CC1 [Compound 45]	< 0.1 µM
O=C(Cc1ccc(OCCCN2CCNCC2)cc1Cl)Nc1cc(-c2ccnc(Cl)c2)cs1 [Compound 97]	< 0.1 µM
COc1cccc(CC(=O)Nc2nc(-c3ccnc(NCc4ccccc4)c3)cs2)c1 [Compound 14]	> 1 µM
Nc1cc(-c2csc(NC(=O)Cc3cccc(OCCCN4CCNCC4)c3)n2)ccn1 [Compound 52]	< 0.1 µM
Cc1cc(-c2csc(NC(=O)Cc3cccc(NS(C)(=O)=O)c3)c2)ccn1 [Compound 82]	0.1 to 1 µM
CS(=O)(=O)Nc1ccc(F)c(CC(=O)Nc2cc(-c3ccnc(Cl)c3)cs2)c1 [Compound 100]	< 0.1 µM
O=C(Cc1ccc(F)cc1F)Nc1nc(-c2ccnc(NCc3ccccc3)c2)cs1 [Compound 25]	0.1 to 1 µM
CN(C)c1cc(-c2csc(NC(=O)Cc3cc4c(cc3Cl)OCO4)n2)ccn1 [Compound 12]	> 1 µM
CS(=O)(=O)Nc1ccc(CC(=O)Nc2nc(-c3ccnc(N)c3)cs2)cc1 [Compound 43]	0.1 to 1 µM
CCOc1cc(-c2csc(NC(=O)Cc3cc4c(cc3Cl)OCO4)n2)ccn1 [Compound 6]	> 1 µM
Nc1cc(-c2csc(NC(=O)Cc3ccc(F)cc3)n2)ccn1 [Compound 42]	0.1 to 1 µM
NCCC(C(=O)Nc1cc(-c2ccnc(Cl)c2)cs1)c1ccc(F)cc1F (stereo not drawn) [Compound 104]	0.1 to 1 µM
O=C(Cc1cccc(O)c1)Nc1cc(-c2ccnc(F)c2)cs1 [Compound 88]	< 0.1 µM
Cc1cc(-c2csc(NC(=O)Cc3cccc(O)c3)n2)ccn1 [Compound 37]	< 0.1 µM
CNc1cc(-c2csc(NC(=O)Cc3ccccc3Cl)n2)ccn1 [Compound 28]	0.1 to 1 µM
CCNc1cc(-c2csc(NC(=O)Cc3ccccc3Cl)n2)ccn1 [Compound 29]	0.1 to 1 µM
Nc1cc(-c2csc(NC(=O)Cc3cc4c(cc3Cl)OCO4)n2)ccn1 [Compound 17]	< 0.1 µM
